Results from PMC12169669, “Regio- and Stereoselective Synthesis of Nitro-fatty Acids as NRF2 Pathway Activators Working under Ambient or Hypoxic Conditions” (Journal of Medicinal Chemistry, 2025).

Key:
Nfe2l2 = assay: Relative gene expression of Nfe2l2 in BMCs (qRT-PCR); format: cell-based, mouse; conditions: 2 μM, 4 h
Source text: Primary bone marrow cells (BMCs) were isolated from 8–12-week-old male C57BL/6 mice (25–30 g, AnLab, Czech Republic). Mice were housed under standard conditions. BMCs were isolated as follows: The day before isolation, phosphate-buffered saline (PBS), ACK Lysis Buffer (A10492-01, Thermo Fisher Scientific), and Iscove’s Modified Dulbecco’s Medium (IMDM) (12440-053, Thermo Fisher Scientific) were placed in a hypoxic chamber (InvivO2 400, Baker Ruskinn, UK) with adjustable oxygen control to equilibrate for the target oxygen concentrations. On the day of the experiment, animals were euthanized using ketamine/xylazine, and bilateral femurs were extracted. […] After hemolysis at room temperature using hypoxic ACK Lysis Buffer, nucleated BMCs were washed with hypoxic PBS + 2% FBS and counted using a TC20 automated cell counter (Bio-Rad). […]
3 Expression of NRF2 and its target genes in response to NO2FA derivatives. BMCs were cultured under 4% or 1% oxygen conditions and treated for 4 h with the tested NO 2 FAs (2 μM) or medium followed by quantification of (A) Nfe2l2, (B) Hmox1, and (C) Gclm with PCR. […] Data are expressed as mean ± SD from 3 to 7 independent experiments (n = 3–7), analyzed with one-way ANOVA with Dunnett’s multiple comparisons test compared to the controls (*p < 0.05; **p < 0.01; ***p < 0.001).

NRF2 [1] = conditions: comparison of positional isomers; literature; cited from earlier work
NRF2 [2] = conditions: colon cancer cell line, versus shorter or longer chain derivatives; literature; cited from earlier work
NRF2 [3] = assay: Immunocytochemistry of NRF2 in BMCs; format: cell-based, mouse; conditions: 1 h, 1% oxygen
Experimental: BMCs (2 × 10^6 cells in 300 μL of complete medium) were incubated with 10-NO 2 OA or control medium for 1 h in a 1% oxygen incubator. Cells were then washed with PBS, resuspended in fresh PBS, and plated on an 8-well μ-slide (ibidi, Germany). After allowing cells to settle (10 min), PBS was aspirated, and cells were fixed with 4% paraformaldehyde for 10 min. From this step onward, all work was performed under atmospheric conditions. Cells were washed twice, permeabilized with 0.1% Triton X-100, washed again, and blocked with 1% BSA/PBS. Samples were incubated with primary anti-NRF2 antibody (1:100, SAB4501384, Millipore) overnight at 4 °C. After washing, a secondary Alexa Fluor 647 antibody (1:100, A31573, Invitrogen) was added for 1 h at room temperature in the dark. After washes, nuclei were stained with DAPI (0.5 μg/mL, Merck) for 10 min at room temperature in the dark, washed, and mounted on a microscope slide. Images were acquired with an Olympus FV10i (Olympus, Japan) scanning microscope and analyzed using ImageJ v1.52 (NIH).
5 Subcellular localization of NRF2. NO 2 FA derivatives promote nuclear translocation of NRF2 in mouse BMCs. BMCs were cultured under 1% oxygen conditions and treated for 1 h with 2 μM of 10-NO 2 OA, 10-NO 2 LA, or 10-NO 2 SA. […] Data are expressed as mean ± SD from two independent experiments (n = 2). […]

Gclm and Hmox1 = test system: Gclm and Hmox1; parameters: method as in Khoo et al.; conditions: compared to other derivatives; ref Khoo et al.; cited from earlier work

**Q.** With `CCCCCCCC/C=C(\CCCCCCCC(=O)O)[N+](=O)[O-]` [9-NO2OA, (9E)-9-Nitro-oleic Acid] as the compound, how does the Nfe2l2 relative expression (Nfe2l2; 4% oxygen) read?
**A.** significantly increased

**Q.** What about the “NRF2 activation (ARE-reporter luciferase)” value (NRF2 [1]) of the same compound?
**A.** preferentially activated NRF2 over 10-NO 2 OA

**Q.** And the NRF2 induction (NRF2 [2])?
**A.** induced NRF2 more robustly

**Q.** What does the source list for `CCCCCCCC/C(=C\CCCCCCCC(=O)O)[N+](=O)[O-]` [10-NO2OA, (9E)-10-Nitro-oleic Acid]?
**A.** colocalization of NRF2 with the nucleus (NRF2 [3]): increased colocalization; expression of Gclm and Hmox1 (Gclm and Hmox1): induced a higher expression

**Q.** Which Nfe2l2 relative expression (Nfe2l2; 4% and 1% oxygen) does the source give for `CCCCCCCCC(CCCCCCCCC(=O)O)[N+](=O)[O-]` (stereo not drawn) [10-NO2SA, 10-Nitro Stearic acid] here?
**A.** no effects
